Data on one compound can be found in publication PMC7915588, “Polyphyllin D Shows Anticancer Effect through a Selective Inhibition of Src Homology Region 2-Containing Protein Tyrosine Phosphatase-2 (SHP2)” (Molecules, 2021).

The target in one test is T1, PTPN18 (PTP-HSCF) (Homo sapiens, UniProt Q99952).
T1 construct: 1-300
T1 sequence (Q99952 1-460): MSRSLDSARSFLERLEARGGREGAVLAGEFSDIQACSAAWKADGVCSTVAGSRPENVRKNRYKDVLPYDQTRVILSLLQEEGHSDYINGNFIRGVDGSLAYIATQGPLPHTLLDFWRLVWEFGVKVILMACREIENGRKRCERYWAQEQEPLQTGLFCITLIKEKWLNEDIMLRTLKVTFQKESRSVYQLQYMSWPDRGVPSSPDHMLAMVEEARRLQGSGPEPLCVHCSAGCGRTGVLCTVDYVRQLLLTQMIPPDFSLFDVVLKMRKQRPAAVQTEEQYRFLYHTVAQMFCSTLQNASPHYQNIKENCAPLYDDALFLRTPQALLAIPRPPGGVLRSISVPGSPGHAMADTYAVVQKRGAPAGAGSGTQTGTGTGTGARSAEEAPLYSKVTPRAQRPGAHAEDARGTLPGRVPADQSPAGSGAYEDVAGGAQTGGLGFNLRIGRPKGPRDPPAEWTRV
Description: biochemical. The arrangement: Fluorogenic phosphatase assay, DiFMUP hydrolysis by recombinant PTPs, initial velocity, Ex/Em 355/460 nm. As to conditions: read-out: Inhibition by 20 µM polyphyllin D (%).

The next test concerns the target T2, PTPN14 (PTP36) (Homo sapiens, UniProt Q15678).
T2 construct: 908-1187
T2 sequence (Q15678 1-1187): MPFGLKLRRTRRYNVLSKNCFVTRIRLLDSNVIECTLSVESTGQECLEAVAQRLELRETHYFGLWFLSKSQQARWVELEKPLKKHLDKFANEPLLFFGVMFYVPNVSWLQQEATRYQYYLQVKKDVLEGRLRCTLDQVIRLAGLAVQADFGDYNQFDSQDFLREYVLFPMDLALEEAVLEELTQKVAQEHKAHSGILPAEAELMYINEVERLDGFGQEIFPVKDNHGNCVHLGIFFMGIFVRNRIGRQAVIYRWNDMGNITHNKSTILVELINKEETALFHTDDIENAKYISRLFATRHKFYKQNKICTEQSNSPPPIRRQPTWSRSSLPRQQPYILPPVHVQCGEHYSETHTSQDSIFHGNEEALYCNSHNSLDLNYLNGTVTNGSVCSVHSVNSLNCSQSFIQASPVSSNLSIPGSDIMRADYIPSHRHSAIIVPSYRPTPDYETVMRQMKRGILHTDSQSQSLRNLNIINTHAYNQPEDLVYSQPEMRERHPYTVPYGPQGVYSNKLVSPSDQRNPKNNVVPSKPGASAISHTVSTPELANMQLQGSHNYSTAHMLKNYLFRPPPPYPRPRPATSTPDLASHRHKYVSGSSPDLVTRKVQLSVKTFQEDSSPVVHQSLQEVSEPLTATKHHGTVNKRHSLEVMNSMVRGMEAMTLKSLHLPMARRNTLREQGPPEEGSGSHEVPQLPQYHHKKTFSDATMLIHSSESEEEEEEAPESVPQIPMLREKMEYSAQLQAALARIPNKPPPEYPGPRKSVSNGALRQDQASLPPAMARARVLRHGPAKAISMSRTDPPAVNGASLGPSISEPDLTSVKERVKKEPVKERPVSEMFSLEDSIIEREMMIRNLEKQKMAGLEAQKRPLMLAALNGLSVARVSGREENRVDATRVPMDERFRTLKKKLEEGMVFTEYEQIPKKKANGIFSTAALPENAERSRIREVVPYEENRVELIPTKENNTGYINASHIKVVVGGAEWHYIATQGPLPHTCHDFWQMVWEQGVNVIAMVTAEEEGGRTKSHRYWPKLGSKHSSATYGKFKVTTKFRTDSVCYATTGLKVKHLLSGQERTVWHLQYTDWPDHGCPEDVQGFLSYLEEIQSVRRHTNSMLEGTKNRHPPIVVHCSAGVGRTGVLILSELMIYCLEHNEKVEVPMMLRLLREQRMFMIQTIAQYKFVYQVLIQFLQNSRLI
Description: biochemical. Set-up: Fluorogenic phosphatase assay, DiFMUP hydrolysis by recombinant PTPs, initial velocity, Ex/Em 355/460 nm. As to conditions: read-out: Inhibition by 20 µM polyphyllin D (%).

Consider `C[C@@H]1CC[C@@]2(OC1)O[C@H]1C[C@H]3[C@@H]4CC=C5C[C@@H](O[C@@H]6O[C@H](CO)[C@@H](O[C@@H]7O[C@@H](CO)[C@H](O)[C@H]7O)[C@H](O)[C@H]6O[C@@H]6O[C@@H](C)[C@H](O)[C@@H](O)[C@H]6O)CC[C@]5(C)[C@H]4CC[C@]3(C)[C@H]1[C@@H]2C` [polyphyllin D], for which the inhibition at 20 µM on PTPN18 (PTP-HSCF) was 14.2%; at PTPN14 (PTP36), 0%.
